Test results reported in patent US7507704B1, “Receptor modulated cancer protocols” (priority 2002, dated 2009).

How the values were obtained:
Metastatic Breast Cancer [1] = experiment: Skipper log cell kill model projection for trastuzumab regimens (antagonistic scenario); settings: estimated from AC group, 23%÷68%
Metastatic Breast Cancer [2] = settings: cytotoxics q 21 days × 6, trastuzumab q week, actual Phase III data; cited from earlier work
[3] = rifampicin co-administered with erlotinib; cited from earlier work
[4] = in vivo; cited from earlier work

With `O=P1(N(CCCl)CCCl)NCCCO1` (stereo not shown) [C, cyclophosphamide] the “"stand alone" tumor kill rate” value (Metastatic Breast Cancer [1]) was 34%.

In the case of `CC(=O)O[C@H]1C(=O)[C@@]2(C)[C@H]([C@H](OC(=O)c3ccccc3)[C@]3(O)C[C@H](OC(=O)[C@H](O)[C@@H](NC(=O)c4ccccc4)c4ccccc4)C(C)=C1C3(C)C)[C@]1(OC(C)=O)CO[C@@H]1C[C@@H]2O` [Paclitaxel], the “Median Survival” value (Metastatic Breast Cancer [2]) is given as 18.4 months.

In the case of `CO[C@H]1/C=C/O[C@@]2(C)Oc3c(C)c(O)c4c(O)c(c(/C=N/N5CCN(C)CC5)c(O)c4c3C2=O)NC(=O)/C(C)=C\C=C\[C@H](C)[C@H](O)[C@@H](C)[C@@H](O)[C@@H](C)[C@H](OC(C)=O)[C@@H]1C` [Rifampicin], the “increased clearance of erlotinib” value [3] is given as 3 fold.

For `CC/C(=C(\c1ccccc1)c1ccc(OCCN(C)C)cc1)c1ccccc1` [Tamoxifen], the “plasma concentration half life” value [4] is given as 120 to 170 h.
